Legend:
[1] = levels of dissolved silver with halogenated hydantoins and a source of silver; assay type: physicochemical
From the text: Hydantoin structures are also known as complexing agents in silver-plating processes (R. J. Morrissey, U.S. Patent Application Publication no. 2005/0183961). […] While not fully understood it is believed that the aforementioned increased in solubility is due to a soluble complex or association between silver and hydantoin ring structures since it has been found the silver remains soluble to a higher degree than expected thus making more silver ions available for killing harmful microorganism.
DMH is a chemical derivative of hydantoin comprising of a hydantoin ring with two methyl groups attached at the number five position of the ring. DMH is a component of Bromochlordimethyl hydantoin (BCDMH), organic source bromine utilized for disinfecting spa water. […] Additional research performed by the Applicant seems to indicate that the DMH portion of the BCDMH molecule alone may be responsible for the increased solubility of silver. The mechanism of increased silver solubility appears to involve the formation of a DMH/silver complex that has a higher solubility in water than silver salts such as […] or silver chloride. It is should be noted that the antimicrobial activity tends to increase with soluble silver concentration.

microbial growth = experiment: single microbiological assay of the antimicrobial activity of the synthesized DMH/Ag complex; assay type: cell-based
bacteria in the pool = experiment: 32,000 gallon outdoor pool sanitized with FROG minerals, chlorine and DMH; bacteria monitored over three months; conditions: about 10 ppm to 12 ppm DMH added to pool treated with FROG minerals (silver chloride on limestone carrier) and chlorine; free chlorine as low as 0.1 ppm; three month period
Method: A 32,000 gallon outdoor pool was sanitized using commercially available FROG™ minerals and chlorine. The FROG™ Minerals included silver chloride on a limestone carrier. In addition to the conventional sanitizing treatment using silver chloride and chlorine sufficient DMH was added to the pool to bring the DMH content of the pool to a level of about 10 ppm to 12 ppm DMH in the pool. The free chlorine, total chlorine, pH and the bacteria in the pool were monitored over a three month period. During the period both humans and animals swam in the pool.

[2] = cited from earlier work
[3] = used in conjunction with a source of silver

With `CC1(C)C(=O)N(Cl)C(=O)N1Br` [BCDMH, 1-bromo-3-chloro-5,5dimethylhydantoin] as the compound, how does the “levels of dissolved silver” value ([1]; combined with silver ions in spa water containing bromine) read?
The value was “higher than would be anticipated”.

And the “levels of dissolved silver” value [1, 3]?
The value was “tend to increase levels of dissolved silver”.

Which “antimicrobial activity compared to the equivalent level of silver used alone” value (microbial growth; synthesized complex) does the source give for “Silver dimethylhydantoin [synthesized DMH/Ag complex]” here?
The value was “greater antimicrobial activity”.

What about the “control of microbial growth” value (microbial growth; without added source of halide) of the same compound?
The value was “has the potential to control microbial growth without the need for an added source of halide”.

For `CC1(C)C(=O)N(Cl)C(=O)N1Cl` [DCDMH, 1,3 dichloro-5,5 dimethylhydantoin], which “levels of dissolved silver” value [1, 3] is on record?
The value was “tend to increase levels of dissolved silver”.

Which total bacteria count (bacteria in the pool) does the source give for `CC1(C)NC(=O)NC1=O` [DMH, 5,5-dimethylhydantoin] here?
The total bacteria count was “zero”.

With `O=C1CNC(=O)N1` [Hydantoin] as the compound, how does the solubility in water [2] read?
The solubility in water was “slightly soluble in water”.
